Entries after “also recorded” stand apart in the source; their conditions may differ.
Assays:
Format in all cases: in vivo
NH3 induced cough = NH3 induced cough in Guinea pig; conditions: for antitussive activity in words: NH3 cough, p.o., Ambroxol at twice the YS 912 dose
From the text: NH3 induced cough in Guinea pig.
23-page 219, 1965 with the changes reported by S. Malandrino et al. (Arzneim. Forsch. Drug. Res, 38, 1141, 1988) was used, comparing YS 912, Ambroxol and two standard control drugs: Fominoben and Codeine phosphate.

[1] = system: Cough induced by mechanical stimulation; assay: Cough induced by mechanical stimulation in dog; conditions: for antitussive activity in words: mechanical stimulation, p.o., Ambroxol at twice the YS 912 dose
From the text: Cough induced by mechanical stimulation in dog.
24 Page 523, was used, comparing YS 912 with Ambroxol, Fominoben and Codeine phosphate.

bronchial fluid = assay: Bronchosecretolytic activity (fluorescein amount in bronchial fluid); conditions: for Fluorescein amount in bronchial fluid: means of 12 animals, controls 0.26 ± 0.03; for ED50: po, bronchosecretolytic activity, read-out: DE50 (calculated effective dose 50)
From the text: The procedure described by H. […] Graziani and P. Cazzulani-(I1 Farmaco Ed. Pr. 36, 167; 1981) was used, comparing YS 912 with Ambroxol at the same weight doses.

[2] = system: Citric acid induced cough; assay: Citric acid induced cough in Guinea pig; conditions: for Cough strokes after treatment: mean ± S.E.; for Cough strokes after treatment / % inhibition vs. basal (cough strokes): n = 10; for ED50: Cavia porcellus, ip., citric acid cough, read-out: DE50 (effective dose 50, ED50)
From the text: 1. Citric acid induced cough in Guinea pig. The procedure described by R.A. Turner in "Screening methods in pharmacology-Antitussive agents" -Academic Press. New York-chapt. 23-page 219, 1965, with the changes reported by S. Malandrino et al. (Arzneim. Forsch. Drug. REs, 38, 1141, 1988), was used, comparing YS 912 with Ambroxol.

[3] = Acute pharmacokinetic study in the rat, single administration at equimolecular doses
Description: A study was carried out on the rat, by comparing the kinetic profiles of YS 912 and Ambroxol, after single administration at equimolecular doses.

[4] = "In steady" pharmacokinetic study in the rat, equimolecular doses during 6 days; conditions: extrapolated to human from rat
[5] = single administration at equimolecular doses

Row | Compound | % inhibition vs. controls (NH3 induced cough; 50 mg/kg p.o.) [%] | % inhibition vs. controls ([1]; 50 mg/kg p.o.) [%] | antitussive activity in words (NH3 induced cough) | % v.s. controls (fluorescein amount) (bronchial fluid; 12.5 mg/kg p.o.) [%] | Fluorescein amount in bronchial fluid (bronchial fluid; 12.5 mg/kg p.o.) | % v.s. controls (fluorescein amount) (bronchial fluid; 25.0 mg/kg p.o.) [%] | Fluorescein amount in bronchial fluid (bronchial fluid; 25.0 mg/kg p.o.) | % v.s. controls (fluorescein amount) (bronchial fluid; 50.0 mg/kg p.o.) [%] | Fluorescein amount in bronchial fluid (bronchial fluid; 50.0 mg/kg p.o.) | ED50 (bronchial fluid) [mg/kg] | Cough strokes after treatment ([2]; 12.5 mg/kg ip.) [cough strokes] | % inhibition vs. basal (cough strokes) ([2]; 12.5 mg/kg ip.) [%] | Cough strokes after treatment ([2]; 25 mg/kg ip.) [cough strokes] | % inhibition vs. basal (cough strokes) ([2]; 25 mg/kg ip.) [%] | Cough strokes after treatment ([2]; 50 mg/kg ip.) [cough strokes] | % inhibition vs. basal (cough strokes) ([2]; 50 mg/kg ip.) [%] | ED50 [2] [mg/kg] | antitussive activity in words [1] | other results
1 | CN(CC(=O)N1CCOCC1)Cc1c(Cl)cccc1NC(=O)c1ccccc1 [Fominoben] | 63.4 | 59.0 | – | – | – | – | – | – | – | – | – | – | – | – | – | – | – | – | –
2 | COc1ccc2c3c1O[C@H]1[C@@H](O)C=C[C@H]4[C@@H](C2)N(C)CC[C@@]341 [Codeina fosfato] | – | – | – | – | – | – | – | – | – | – | – | – | – | – | – | – | – | – | % inhibition vs. controls (NH3 induced cough; 5 mg/kg p.o.): 56.1%; % inhibition vs. controls ([1]; 5 mg/kg p.o.): 63.1%
3 | Nc1c(Br)cc(Br)cc1CNC1CCC(O)CC1 (stereo not shown) [Ambroxol, 2-Amino-3,5-dibromo-N-(4-hydroxycyclohexyl)benzylamine, reference compound] | – | – | poorly effective, lacking any statistical significance | 23.07 | 0.32 ± 0.03 | 26.92 | 0.33 ± 0.02 | 42.30 | 0.37 ± 0.03 | 95.2 | 7.40 ± 1.32 | 19.57 | 6.20 ± 0.61 | 35.42 | 4.80 ± 1.02 | 46.07 | 57.2 | substantially no effectiveness | % inhibition vs. controls (NH3 induced cough; 100 mg/kg p.o.): 34.2%; last time at which it can be dosed in plasma ([3]; in vivo): 12 h; time of plasmatic concentration peak ([3]; in vivo): second; % inhibition vs. controls ([1]; 100 mg/kg p.o.): 13.5%
4 | O=C(Nc1c(Br)cc(Br)cc1CNC1CCC(O)CC1)c1ccccc1 (stereo not shown) [YS 912, 2-benzoylamino-3,5-dibromo-N-(4-hydroxycyclohexyl)benzylamine] | 61.0 | 54.0 | high activity | 19.23 | 0.31 ± 0.03 | 30.76 | 0.34 ± 0.04 | 46.15 | 0.38 ± 0.04 | 60 | 2.90 ± 0.60 | 62.34 | 2.30 ± 0.54 | 75.00 | 2.00 ± 0.47 | 78.95 | 4.81 | comparable to that of the two control compounds | plasmatic concentrations in human clinic, extrapolated, two daily YS 912 vs three daily Ambroxol administrations [4]: two daily administrations of YS 912 allow to achieve plasmatic concentrations (and therefore therapeutical effectiveness) which can be compared with those obtained after three daily administrations of Ambroxol; bronchosecretolytic effectiveness in words (bronchial fluid; p.o.): more favourable; antitussive activity in words ([2]; 12.5, 25, 50 mg/kg ip., compared with Ambroxol): remarkable antitussive activity; also recorded: higher than that of Ambroxol; potency by ED50 relative to Ambroxol ([2]; ratio to Ambroxol): 14 times; Tmax ([3]; plasma, single administration, read-out: time of plasmatic concentration peak (converted)): 30 min; adsorption (absorption) ([3]; single administration): fast and high; main metabolite ([3]; single administration): the main metabolite being Ambroxol; AUC compared with Ambroxol [3, 5]: higher value being evidenced also in the case of the AUC; plasmatic half-life, increase over that of Ambroxol [3, 5]: 30%; metabolism: kinetic ([3]; single administration, after the 6th hour): slower kinetic
